# In paper PMC4499133, “ATP-dependent motor activity of the transcription termination factor Rho from Mycobacterium tuberculosis” (Nucleic Acids Research, 2015):
# Target: T1, MtbRho (transcription termination factor Rho) (Mycobacterium tuberculosis, UniProt P9WHF3)
# T1 construct: WT MtbRho, N-terminal His tag, hexamer
# Test: biochemical
# T1 sequence (P9WHF3 whole entry): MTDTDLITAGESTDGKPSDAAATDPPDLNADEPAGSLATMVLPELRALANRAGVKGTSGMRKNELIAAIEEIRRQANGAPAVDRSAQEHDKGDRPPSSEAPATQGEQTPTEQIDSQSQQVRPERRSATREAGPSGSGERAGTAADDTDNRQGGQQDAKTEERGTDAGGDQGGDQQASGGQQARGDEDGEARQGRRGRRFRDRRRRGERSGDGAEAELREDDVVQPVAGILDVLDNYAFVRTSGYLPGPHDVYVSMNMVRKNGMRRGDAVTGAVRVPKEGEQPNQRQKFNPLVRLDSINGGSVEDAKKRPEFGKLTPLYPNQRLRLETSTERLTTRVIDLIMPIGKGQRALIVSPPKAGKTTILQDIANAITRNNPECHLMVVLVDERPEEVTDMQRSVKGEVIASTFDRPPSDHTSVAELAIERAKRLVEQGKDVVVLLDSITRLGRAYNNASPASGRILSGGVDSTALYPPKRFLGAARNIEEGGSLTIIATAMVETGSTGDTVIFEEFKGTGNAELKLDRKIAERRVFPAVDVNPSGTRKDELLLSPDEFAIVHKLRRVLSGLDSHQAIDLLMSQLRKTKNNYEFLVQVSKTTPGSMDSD
compound,measurement,value
"C=C1CCO[C@]2([C@@H](O)[C@@](C)(O)CO)NC(=O)[C@@]1(O)NC2=O [BCM, bicyclomycin]",IC50,157 ± 20 µM
